Assay results from patent publication US9513294B2, “Megastokes amino-triazolyl-BODIPY compounds and applications to live neuron staining and human serum albumin FA1 drug site probing” (National University of Singapore, priority 2012, dated 2016).
One block for each compound: values may come before it.

How the values were obtained:
[1] = Quantum yield measurements versus Acridine Yellow in EtOH; type: physicochemical; conditions: for φ (quantum yield): excitation 460 nm; for φ (%): quantum yield
How it was run: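 Emission areas integrated over 510–700 nm were compared with Acridine Yellow in ethanol (Φ=0.47), all excited at 460 nm. The comparative equation was normalized to excitation-wavelength absorbance and solvent refractive index.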

[2] = Absorbance and fluorescence emission spectra (SpectraMax M2); type: physicochemical; conditions: for λmax Abs. (nm) / λmax Em. (nm): MKAC compound library; for λmax Abs. (nm) / λmax Absorp. (nm): absorbance maximum; for λmax Em. (nm) / λmax Emission (nm): fluorescence emission maximum; for λmax Absorp. (nm) / λmax Emission (nm): MKCA compound library
How it was run: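 Spectroscopic data, including quantum yields, were recorded with a SpectraMax M2 instrument and analysed in GraphPrism.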

SMILES: Nc1ccc(C2=C3C=CC(N4CCc5ccccc5C4)=[N+]3[B-](F)(F)n3c2ccc3-n2cc(CO)nn2)cc1 [MK66-70]
φ (quantum yield) ([1]; MK library, Table 5): 0.14%
λmax Absorp. ([2]; MK library, Table 5): 479 nm
λmax Emission ([2]; MK library, Table 5): 596 nm

SMILES: CC(=O)Nc1ccc(C2=C3C=CC(N4CCCCC4)=[N+]3[B-](F)(F)n3c2ccc3-n2cc(C3CCCC3)nn2)cc1 [BDCAC-5]
φ (quantum yield) ([1]; BDCAC library, Table 3): 1.3%
λmax Absorp. ([2]; BDCAC library, Table 3): 469 nm
λmax Emission ([2]; BDCAC library, Table 3): 588 nm

SMILES: CC(=O)Nc1ccc(C2=C3C=CC(N4CCCC4)=[N+]3[B-](F)(F)n3c2ccc3-n2cc(CO)nn2)cc1 [MKAC215-70]
φ (%) ([1]; MKAC compound library): 1.11%
λmax Abs. (nm) [2]: 461 nm
λmax Em. (nm) [2]: 574 nm

SMILES: CCCC(C)c1cn(-c2ccc3n2[B-](F)(F)[N+]2=C(N4CCCCC4)C=CC2=C3c2ccc(NC(C)=O)cc2)nn1 (stereo not drawn) [BDCAC-3]
φ (quantum yield) ([1]; BDCAC library, Table 3): 1.5%
λmax Absorp. ([2]; BDCAC library, Table 3): 467 nm
λmax Emission ([2]; BDCAC library, Table 3): 585 nm

SMILES: Nc1ccc(C2=C3C=CC(N4CCCC4)=[N+]3[B-](F)(F)n3c2ccc3-n2cc(CO)nn2)cc1 [MK215-70]
φ (quantum yield) ([1]; MK library, Table 5): 0.22%
λmax Absorp. ([2]; MK library, Table 5): 471 nm
λmax Emission ([2]; MK library, Table 5): 595 nm

SMILES: CCCCCC(O)c1cn(-c2ccc3n2[B-](F)(F)[N+]2=C(NCc4cc(F)cc(F)c4)C=CC2=C3c2ccc(NC(C)=O)cc2)nn1 (stereo not drawn) [MKAC412-69]
φ (%) ([1]; MKAC compound library): 17.68%
λmax Abs. (nm) [2]: 468 nm
λmax Em. (nm) [2]: 563 nm

SMILES: CC(=O)Nc1ccc(C2=C3C=CC(N4CC(C)OC(C)C4)=[N+]3[B-](F)(F)n3c2ccc3-n2cc(CC3CCCCC3)nn2)cc1 (stereo not drawn) [MKAC20-8]
φ (%) ([1]; MKAC compound library): 4.98%
λmax Abs. (nm) [2]: 466 nm
λmax Em. (nm) [2]: 583 nm

SMILES: O=C(CCl)Nc1ccc(C2=C3C=CC(N4CCCCC4)=[N+]3[B-](F)(F)n3c2ccc3-n2cc(C3CC3)nn2)cc1 [BDCCA-4]
φ (quantum yield) ([1]; BDCCA library, Table 4): 1.1%
λmax Absorp. ([2]; BDCCA library, Table 4): 467 nm
λmax Emission ([2]; BDCCA library, Table 4): 577 nm

SMILES: CCCC(C)c1cn(-c2ccc3n2[B-](F)(F)[N+]2=C(NCc4ccccc4OCC)C=CC2=C3c2ccc(N)cc2)nn1 (stereo not drawn) [MK103-3]
φ (quantum yield) ([1]; MK library, Table 5): 1.71%
λmax Absorp. ([2]; MK library, Table 5): 474 nm
λmax Emission ([2]; MK library, Table 5): 564 nm

SMILES: CC1CN(C2=[N+]3C(=C(c4ccc(NC(=O)CCl)cc4)c4ccc(-n5cc(CO)nn5)n4[B-]3(F)F)C=C2)CC(C)O1 (stereo not drawn) [MKCA20-70]
φ (%) ([1]; MKCA compound library): 2.64%
λmax Absorp. (nm) [2]: 469 nm
λmax Emission (nm) [2]: 587 nm

SMILES: CCc1ccc(-c2cn(-c3ccc4n3[B-](F)(F)[N+]3=C(N5CCCCC5)C=CC3=C4c3ccc(N)cc3)nn2)cc1 [BDC-46]
φ (quantum yield) ([1]; BDC library, Table 2): 0.10%
λmax Absorp. ([2]; BDC library, Table 2): 473 nm
λmax Emission ([2]; BDC library, Table 2): 585 nm

SMILES: CCCCCC(O)c1cn(-c2ccc3n2[B-](F)(F)[N+]2=C(N4CC(C)OC(C)C4)C=CC2=C3c2ccc(N)cc2)nn1 (stereo not drawn) [MK20-69]
φ (quantum yield) ([1]; MK library, Table 5): 0.16%
λmax Absorp. ([2]; MK library, Table 5): 480 nm
λmax Emission ([2]; MK library, Table 5): 586 nm

SMILES: O=C(CCl)Nc1ccc(C2=C3C=CC(N4CCCCC4)=[N+]3[B-](F)(F)n3c2ccc3-n2cc(CO)nn2)cc1 [BDCCA-70]
φ (quantum yield) ([1]; BDCCA library, Table 4): 0.6%
λmax Absorp. ([2]; BDCCA library, Table 4): 465 nm
λmax Emission ([2]; BDCCA library, Table 4): 584 nm

SMILES: CCCc1cn(-c2ccc3n2[B-](F)(F)[N+]2=C(N4CCCC4)C=CC2=C3c2ccc(N)cc2)nn1 [MK215-48]
φ (quantum yield) ([1]; MK library, Table 5): 0.29%
λmax Absorp. ([2]; MK library, Table 5): 470 nm
λmax Emission ([2]; MK library, Table 5): 575 nm

SMILES: CCCC(C)c1cn(-c2ccc3n2[B-](F)(F)[N+]2=C(N4CCCC4)C=CC2=C3c2ccc(N)cc2)nn1 (stereo not drawn) [MK215-3]
φ (quantum yield) ([1]; MK library, Table 5): 0.26%
λmax Absorp. ([2]; MK library, Table 5): 471 nm
λmax Emission ([2]; MK library, Table 5): 567 nm

SMILES: CCCC(C)c1cn(-c2ccc3n2[B-](F)(F)[N+]2=C(N4CCc5ccccc5C4)C=CC2=C3c2ccc(N)cc2)nn1 (stereo not drawn) [MK66-3]
φ (quantum yield) ([1]; MK library, Table 5): 0.16%
λmax Absorp. ([2]; MK library, Table 5): 479 nm
λmax Emission ([2]; MK library, Table 5): 579 nm

SMILES: CCCCCCc1cn(-c2ccc3n2[B-](F)(F)[N+]2=C(N4CCCCC4)C=CC2=C3c2ccc(N)cc2)nn1 [BDC-47]
φ (quantum yield) ([1]; BDC library, Table 2): 0.16%
λmax Absorp. ([2]; BDC library, Table 2): 473 nm
λmax Emission ([2]; BDC library, Table 2): 574 nm

Now from value to compound:

φ (%) ([1]; MKCA compound library): 3.03%
λmax Absorp. (nm) [2]: 462 nm
λmax Emission (nm) [2]: 580 nm
SMILES: CN(Cc1ccccc1)Cc1cn(-c2ccc3n2[B-](F)(F)[N+]2=C(N(C)Cc4ccccc4)C=CC2=C3c2ccc(NC(=O)CCl)cc2)nn1 [MKCA195-18]

φ (%) ([1]; MKCA compound library): 36.22%
λmax Absorp. (nm) [2]: 464 nm
λmax Emission (nm) [2]: 564 nm
SMILES: CCOc1ccccc1CNC1=[N+]2C(=C(c3ccc(NC(=O)CCl)cc3)c3ccc(-n4cc(C5CC5)nn4)n3[B-]2(F)F)C=C1 [MKCA103-4]

φ (%) ([1]; MKCA compound library): 23.61%
λmax Absorp. (nm) [2]: 466 nm
λmax Emission (nm) [2]: 562 nm
SMILES: CCCC(C)c1cn(-c2ccc3n2[B-](F)(F)[N+]2=C(NCc4ccccc4OCC)C=CC2=C3c2ccc(NC(=O)CCl)cc2)nn1 (stereo not drawn) [MKCA103-3]

φ (%) ([1]; MKAC compound library): 15.35%
λmax Abs. (nm) [2]: 464 nm
λmax Em. (nm) [2]: 558 nm
SMILES: CCOc1ccccc1CNC1=[N+]2C(=C(c3ccc(NC(C)=O)cc3)c3ccc(-n4cc(CO)nn4)n3[B-]2(F)F)C=C1 [MKAC103-70]

φ (%) ([1]; MKCA compound library): 1.97%
λmax Absorp. (nm) [2]: 459 nm
λmax Emission (nm) [2]: 568 nm
SMILES: O=C(CCl)Nc1ccc(C2=C3C=CC(N4CCCC4)=[N+]3[B-](F)(F)n3c2ccc3-n2cc(CO)nn2)cc1 [MKCA215-70]

φ (quantum yield) ([1]; MK library, Table 5): 0.28%
λmax Absorp. ([2]; MK library, Table 5): 476 nm
λmax Emission ([2]; MK library, Table 5): 591 nm
SMILES: CCCCCC(O)c1cn(-c2ccc3n2[B-](F)(F)[N+]2=C(N(C)Cc4ccccc4)C=CC2=C3c2ccc(N)cc2)nn1 (stereo not drawn) [MK195-69]

φ (%) ([1]; MKCA compound library): 33.76%
λmax Absorp. (nm) [2]: 465 nm
λmax Emission (nm) [2]: 563 nm
SMILES: CCOc1ccccc1CNC1=[N+]2C(=C(c3ccc(NC(=O)CCl)cc3)c3ccc(-n4cc(CC(C)C)nn4)n3[B-]2(F)F)C=C1 [MKCA103-43]

φ (%) ([1]; MKAC compound library): 21.57%
λmax Abs. (nm) [2]: 464 nm
λmax Em. (nm) [2]: 562 nm
SMILES: CCCC(C)c1cn(-c2ccc3n2[B-](F)(F)[N+]2=C(NCc4ccccc4C)C=CC2=C3c2ccc(NC(C)=O)cc2)nn1 (stereo not drawn) [MKA101-3]

φ (%) ([1]; MKAC compound library): 14.0%
λmax Abs. (nm) [2]: 464 nm
λmax Em. (nm) [2]: 561 nm
SMILES: COc1ccc(OC)c(CNC2=[N+]3C(=C(c4ccc(NC(C)=O)cc4)c4ccc(-n5cc(CCc6ccccc6)nn5)n4[B-]3(F)F)C=C2)c1 [MKAC181-19]

φ (quantum yield) ([1]; BDCCA library, Table 4): 2.3%
λmax Absorp. ([2]; BDCCA library, Table 4): 463 nm
λmax Emission ([2]; BDCCA library, Table 4): 552 nm
SMILES: COc1cccc(-c2cn(-c3ccc4n3[B-](F)(F)[N+]3=C(N5CCCCC5)C=CC3=C4c3ccc(NC(=O)CCl)cc3)nn2)c1 [BDCCA-27]

φ (%) ([1]; MKCA compound library): 31.53%
λmax Absorp. (nm) [2]: 466 nm
λmax Emission (nm) [2]: 563 nm
SMILES: Cc1ccccc1CNC1=[N+]2C(=C(c3ccc(NC(=O)CCl)cc3)c3ccc(-n4cc(C5CCCC5)nn4)n3[B-]2(F)F)C=C1 [MKCA101-5]

φ (quantum yield) ([1]; BDCCA library, Table 4): 1.3%
λmax Absorp. ([2]; BDCCA library, Table 4): 464 nm
λmax Emission ([2]; BDCCA library, Table 4): 587 nm
SMILES: CC(C)(C)c1ccc(-c2cn(-c3ccc4n3[B-](F)(F)[N+]3=C(N5CCCCC5)C=CC3=C4c3ccc(NC(=O)CCl)cc3)nn2)cc1 [BDCCA-11]

φ (%) ([1]; MKAC compound library): 1.67%
λmax Abs. (nm) [2]: 464 nm
λmax Em. (nm) [2]: 579 nm
SMILES: CC(=O)Nc1ccc(C2=C3C=CC(N(C)Cc4ccccc4)=[N+]3[B-](F)(F)n3c2ccc3-n2cc(CO)nn2)cc1 [MKAC195-70]

φ (%) ([1]; MKAC compound library): 18.63%
λmax Abs. (nm) [2]: 465 nm
λmax Em. (nm) [2]: 560 nm
SMILES: CCOc1ccccc1CNC1=[N+]2C(=C(c3ccc(NC(C)=O)cc3)c3ccc(-n4cc(CN(C)Cc5ccccc5)nn4)n3[B-]2(F)F)C=C1 [MKAC103-18]
